The values below are quoted from earlier work in patent publication US20220088213A1, “DRUG DELIVERY SYSTEM USING PH-DEPENDENT CELL-PENETRATING PEPTIDES, AND COMPOSITE THEREOF WITH DRUG” (priority 2019, published 2022).

Read-outs that look alike come from different tables or passages of the source.

In this data set the test system is cell membrane. Particulars: cited from earlier work.

With GALA, the cell membrane penetration entry reads like this: (acidic pH conditions) “penetrates a cell membrane”; (neutral pH) “cannot penetrate the cell membrane”.
Consider “ATRAM (GLAGLAGLLGLEGLLGLPLGLLEGLWLGLELEGN; Penetrating Peptide)”, for which the cell-penetrating activity result (pH dependence) is recorded as “exhibits cell-penetrating activity only at a slightly acidic pH”.
